Laboratory results published in patent publication US7012098B2, “Inhibitors of inducible nitric oxide synthase for chemoprevention and treatment of cancers” (Pharmacia Corporation, priority 2001, dated 2006).
Where a name gives a salt, the structure may show the parent alone. Read-outs that look alike come from different tables or passages of the source.

Experiments:
NOS = experiment: Colonic mucosal NOS activity after dietary treatment; type: in vivo, male F344 rats; details: 500 ppm in diet; AOM-treated rats, colonic mucosa; Mean ± SEM
Procedure: In Vivo Assay of Modulation of Colonic Mucosal Activities of NOS and COX isoforms by iNOS and COX-2 Inhibitors
NOS and iNOS activities were determined in colonic samples as prepared and described above. Conversion of L-arginine to L-citrulline was measured by a modification of an earlier described method (Rao et al, Carcinogenesis 21, supra; Ambs et al., Cancer Res. 58:334-41, 1998, which is herein incorporated by reference). The assay was carried out by adding 100 μg sample protein to 150 μl of assay buffer [50 mM HEPES, 1 mM DTT, 1 mM MgCl2, 5 mg/L pepstatin A, 0.1 mM PMSF, and 3 mg/L aprotinin, pH 7.4] containing 70 μM arginine, 250,000 dpm L-[^3H]-arginine, 2 mM NADPH, 5μM tetrahydro biopterin, 5 μM flavin adenine dinucleotide, and 0.5 mM CaCi2 to measure total NOS activity, or 1 mM EGTA (without calcium) to determine Ca+^2-independent iNOS activity. After 30 min at 37° C., the reaction was stopped with 100 μl of 1M trichloroacetic acid. Then the samples were adjusted to pH 4.6 by adding 500 μl of 20 mM HEPES and loaded on to Dowex AG 50W-X8 resin columns. L-[^3H]-citrulline was eluted and separated on TLC. Radioactivity was counted by a BioScan Radiomatic detector. Results are expressed as pmol L-[^3H]-citrulline released/mg protein/min.

AOM-induced colonic ACF = experiment: Chemopreventive effects in rats with azoxymethane-induced aberrant crypt foci; type: in vivo, male F344 rats; details: for Foci containing 1 Crypt / Foci containing 2 Crypt / Foci containing 3 Crypt / Foci containing ≧4 Crypts / Total ACF incidence: AOM-treated male F344 rats, Mean ± SEM; for inhibition at 320 ppm: feed or water, positive control
From the text: In Vivo Assay of Chemopreventive Effects of Therapeutic Compounds in Rats with Azoxymethane-induced Aberrant Crypt Foci
(§1) Azoxymethane (AOM) (CAS:25843-45-2) was purchased from Ash Stevens (Detroit, Mich.). iNOS and COX-2 selective inhibitors were provided by Pharmacia, (St. Louis, […].). Sulindac, a non-selective inhibitor of COX-isoforms and a known inhibitor of colon carcinogenesis, was supplied by the Chemoprevention Branch of the National Cancer Institute (Bethesda, Md.). Weanling male F344 rats were purchased from Charles River Breeding Laboratories (Kingston, N.Y.). All ingredients of the semipurified diet were obtained from Dyets Inc., (Bethlehem, Pa.) and were stored at 4° C. until the experimental diets were prepared. The rats were held in quarantine for 1 week and had access to modified AIN-76A semipurified control diet (Reddy et al., Cancer Res. 50: 2562-2568, 1990, which is herein incorporated by reference.). They were randomly distributed into various dietary groups and were transferred to an animal holding room where they were housed, three rats to a plastic cage, under controlled conditions of a 12-h light/12-h dark cycle, 50% relative humidity and 21° C. room temperature. Experimental diets were prepared by mixing chemopreventive agents with modified AIN-76A control diet.
To quantify aberrant crypt foci, after a minimum of 24 h in buffered formalin, the colons were cut into 2-cm segments starting at the anus; for the next 5-10 min they were placed in a Petri dish containing 0.2% methylene blue in Krebs Ringer solution. They were then placed, mucosal side up, on a microscope slide and observed through a light microscope. Aberrant crypt foci were recorded according to standard procedures that are being used routinely in our laboratory (Rao et al., Carcinogenesis 21: 617-21, 2000; Rao et al., Cancer Res. 53:4182-88, 1993, which are herein incorporated by reference.). […] The parameters used to assess the aberrant crypts were their occurrence and multiplicity. Crypt multiplicity was determined as the number of crypts in each focus and categorized as containing up to 3, or 4 or more aberrant crypts/focus.

Human Cartilage = Human Cartilage Explant Assay (nitrite production); type: cell-based; details: inhibition of nitrite production, IL-1β-induced explants
Procedure: Human Cartilage Explant Assay
Bone pieces are rinsed twice with Dulbecco's Phosphate Buffered Saline (GibcoBRL) and once with Dulbecco's Modified Eagles Medium (GibcoBRL) and placed into a petri dish with phenol red free Minimum Essential Medium (MEM) (GibcoBRL). Cartilage was cut into small explants of approximately 15-45 mg in weight and one or two explants per well are placed into either 96 or 48 well culture plates with 200-500 μL of culture media per well. The culture media was either a custom modification of Minimum Essential Medium(Eagle) with Earle's salts (GibcoBRL) prepared without L-Arginine, without L-Glutamine and without phenol red or a custom modification of serumless Neuman and Tytell (GibcoBRL) medium prepared without L-arginine, without insulin, without ascorbic acid, without L-glutamine and without phenol red. Both are supplemented before use with 100 μM L-Arginine (Sigma), 2 mM L-glutamine, 1X HL-1 supplement (BioWihittaker), […] ascorbic acid (Sigma) and 150 pg/ml recombinant human IL-1β (RD Systems) to induce nitric oxide synthase. Compounds are then added in 10 μL aliquots and the explants incubated at 37° C. with 5% CO2 for 18-24 hours. The day old supernatant is then discarded and replaced with fresh culture media containing recombinant human IL-1? and compound and incubated for another 20-24 hours. […] All samples are done in quadruplicate. Unstimulated controls are cultured in media in the absence of recombinant human IL-1β. IC50 values (Table I) are determined from plotting the percent inhibition of nitrite production at six different concentrations of inhibitor.

[1] = tested on: LPS-induced increase in plasma nitrite/nitrate levels; experiment: In Vivo Assay, endotoxin-treated rats, plasma nitrite/nitrate; details: administered orally
Procedure: Plasma nitrite/nitrate levels can be determined 5 hours post-treatment.

[2] = Body weights and toxicity on experimental diets; type: in vivo, male F344 rats
From the text: as §1

[3] = tested on: azoxymethane-induced colonic aberrant crypt foci; details: cited from earlier work; for formation of colonic aberrant crypt foci: male F344 rats
[4] = Rattus norvegicus, po, read-out: ED50

For `Cc1ccc(-c2cc(C(F)(F)F)nn2-c2ccc(S(N)(=O)=O)cc2)cc1` [Celecoxib, celecoxib], the “NOS Activity, NOS” value (NOS) was 11.3 ± 2.1 pmoles [^3H]-citrulline/mg pro, the “Foci containing 1 Crypt” value (AOM-induced colonic ACF; 500 ppm in diet) was 26.8 ± 2.1 and the “Foci containing 2 Crypt” value (AOM-induced colonic ACF; 500 ppm in diet) was 27.3 ± 2.0. For the same compound, the “Foci containing 3 Crypt” value (AOM-induced colonic ACF; 500 ppm in diet) was 23.7 ± 2.3, the “Foci containing ≧4 Crypts” value (AOM-induced colonic ACF; 500 ppm in diet) was 23.3 ± 2.7 and the “Total ACF incidence” value (AOM-induced colonic ACF; 500 ppm in diet) was 102 ± 7.5. The inhibition at 500 ppm (AOM-induced colonic ACF; Rattus norvegicus, 500 ppm, read-out: inhibition of total ACF) was 5 to 20%.

In the case of `Cl.N=C1CCCC[C@@H](CCCC[C@H](N)C(=O)O)N1.O.O.O` [Example W, (αS,2R)-α-aminohexahydro-7-imino-1H-azepine-2-hexanoic acid, trihydrate hydrochloride], the IC50 (Human Cartilage; Homo sapiens) is reported as over 30 µM and the ED50 [1, 4] is reported as over 10 mg/kg.

Work on `CC(=N)NC/C=C\CC[C@](C)(N)C(=O)O.Cl.Cl` [Example LL, (2S,5Z)-2-amino-2-methyl-7-[(1-iminoethyl)amino]-5-heptenoic acid, dihydrochloride] yielded an IC50 (Human Cartilage; Homo sapiens) of 0.8 µM and an ED50 [1, 4] of 0.3 mg/kg.

With `CC1=C(CC(=O)O)c2cc(F)ccc2/C1=C\c1ccc([S+](C)[O-])cc1` (stereo not shown) [Sulindac] the “Foci containing 1 Crypt” value (AOM-induced colonic ACF; 320 ppm in diet) was 23.3 ± 1.8, the “Foci containing 2 Crypt” value (AOM-induced colonic ACF; 320 ppm in diet) was 28.0 ± 1.5 and the “Foci containing 3 Crypt” value (AOM-induced colonic ACF; 320 ppm in diet) was 17.3 ± 1.7. For the same compound, the “Foci containing ≧4 Crypts” value (AOM-induced colonic ACF; 320 ppm in diet) was 16.5 ± 0.9, the “Total ACF incidence” value (AOM-induced colonic ACF; 320 ppm in diet) was 84.9 ± 4.1 and the inhibition at 320 ppm (AOM-induced colonic ACF; Rattus norvegicus, 320 ppm in diet, read-out: inhibition of multicrypt clusters containing 4 or more aberrant crypts/focus) was 50%. The inhibition at 320 ppm (AOM-induced colonic ACF; Rattus norvegicus, 320 ppm in diet, read-out: inhibition of total ACF/colon) was 40%, the body weights ([2]; rats treated with vehicle or AOM, control vs experimental diets, throughout the study period) was “comparable” and the “toxicity or gross changes in the liver, kidney, intestine and lungs” value ([2]; vehicle-treated rats fed the experimental diets) was “did not produce any toxicity or any gross changes”.

Compound `N=C1CCCC[C@H](CCCC[C@H](N)C(=O)O)N1` [Example Z, (αS,2S)-α-aminohexahydro-7-imino-1H-azepine-2-hexanoic acid, trihydrate hydrochloride] has an IC50 (Human Cartilage; Homo sapiens) of under 10 µM.

With `CC(=N)NC/C(F)=C\CC[C@H](N)C(=O)O` [Example A, (2S,5E)-2-amino-6-fluoro-7-[(1-iminoethyl)amino]-5-heptenoic acid, dihydrochloride] the ED50 ([1]; dihydrochloride) was under 0.1 mg/kg.

`COC[C@](N)(CSCCNC(C)=N)C(=O)O` [Example J, 2-[[[2-[(1-Iminoethyl)amino]ethyl]thio]methyl]-O-methyl-D-serine, dihydrochloride] gave an IC50 (Human Cartilage) of 8.2 µM.

For `CS(=O)(=O)Nc1ccc([N+](=O)[O-])cc1Oc1ccccc1` [nemisulide], the “formation of colonic aberrant crypt foci” value [3] is given as “inhibit”.

In the case of `N=C1CCCC[C@H](CCCC[C@H](N)C(=O)O)N1` [Example X, (αS,2S)-α-aminohexahydro-7-imino-1H-azepine-2-hexanoic acid, trihydrate hydrochloride], the IC50 (Human Cartilage) is reported as under 10 µM.

For `CC(=N)NC/C(F)=C\CC[C@](C)(N)C(=O)O.Cl.Cl` [Example HH, (2S,5E)-2-amino-2-methyl-6-fluoro-7-[(1-iminoethyl)amino]-5-heptenoic acid, dihydrochloride], the IC50 (Human Cartilage; Homo sapiens) was 0.4 µM and the ED50 [1, 4] was 0.4 mg/kg.

For `COc1ccc2cc(CCC(C)=O)ccc2c1` [nabumetone], the “formation of colonic aberrant crypt foci” value [3] is listed as “inhibit”.

For `N=C(N)SCCc1ccc(CCSC(=N)N)cc1` [PBIT], the “azoxymethane-induced colonic aberrant crypt foci development and iNOS activity” value ([3]; laboratory rodents) is given as “prevented”.

Compound `Cl.N=C1CCCC[C@H](CCCC[C@@H](N)C(=O)O)N1.O.O.O` [Example V, (αR,2S)-α-aminohexahydro-7-imino-1H-azepine-2-hexanoic acid, trihydrate hydrochloride] has an IC50 (Human Cartilage; Homo sapiens) of under 10 µM and an ED50 [1, 4] of under 3 mg/kg.
